Key:
LDL [1] = assay: Copper ion-induced LDL oxidation, TBARS assay; type: biochemical; settings: for effect on LDL oxidation (TBARS), in words: single compounds at low concentration mimicking Lyc-O-Mato: lycopene 10 μg/ml, vitamin E 2.5 μg/ml, β-carotene 0.4 μg/ml
Method: (§1) All studied compounds were dissolved in THF to a stock solution of 1 mg/ml. LDL was dialyzed for 24 hours against phosphate buffered-saline (PBS) prior to its oxidation to remove any EDTA that can interfere with the oxidation. LDL (100 μg protein/ml), was incubated in the absence (Control) or presence of increasing concentrations of each one of the studied compounds, as well as, in various combinations including 2, 3 or the 4 constituents at the desired natural distribution. LDL oxidation was induced by the addition of 5 μM of CuSO4, for 2 hours at 37° C. LDL oxidation was terminated by adding 1 mM Na2 EDTA and immediate refrigeration at 4° C. The extent of LDL oxidation was then determined by measuring the amount of thiobarbituric acid reactive substances (TBARS) and of lipid peroxides (PD) formed. Control LDL was supplemented with only THF.
(§2) LDL (100 μg of protein/mL) was pre-incubated for 30 minutes at 37° C. with increasing concentrations of crystalline pure lycopene, or with tomato oleoresin (at equivalent lycopene concentrations), followed by a further incubation for 2 hours at 37° C. in the presence of 5 μmol/L of CuSO4. LDL oxidation was measured by the TBARS (A) or by the lipid peroxides (B) assays respectively. Results are given as mean±SD (n=3). Addition of increasing concentrations of lycopene inhibited copper ion-induced LDL oxidation moderately, in a dose-dependent manner.

LDL [2] = assay: Copper ion-induced LDL oxidation, lipid peroxides assay; type: biochemical; settings: for effect on LDL oxidation (lipid peroxides), in words: single compounds at low concentration mimicking Lyc-O-Mato: lycopene 10 μg/ml, vitamin E 2.5 μg/ml, β-carotene 0.4 μg/ml
Method: as §1, §2

[3] = 50 μmol/L of lycopene, LDL 100 μg of protein/mL, 5 μmol/L CuSO4, 2 hours at 37° C.

Molecule	effect on LDL oxidation (TBARS), in words (LDL [1])	effect on LDL oxidation (lipid peroxides), in words (LDL [2])	maximal inhibition in TBARS formation (LDL [1]; [3])	maximal inhibition in lipid peroxides formation (LDL [2]; [3])	effect on LDL oxidation, in words (LDL [1]; Example 5: β-carotene alone or in combination with vitamin E)
vitamin E	did not significantly affect LDL oxidation	did not significantly affect LDL oxidation	–	–	–
CC(C)=CCC/C(C)=C/C=C/C(C)=C/C=C/C(C)=C/C=C/C=C(C)/C=C/C=C(C)/C=C/C=C(\C)CCC=C(C)C [lycopene]	did not significantly affect LDL oxidation	did not significantly affect LDL oxidation	22%	27%	–
CC1=C(/C=C/C(C)=C/C=C/C(C)=C/C=C/C=C(C)/C=C/C=C(C)/C=C/C2=C(C)CCCC2(C)C)C(C)(C)CCC1 [β-carotene]	did not significantly affect LDL oxidation	did not significantly affect LDL oxidation	–	–	did not affect at all LDL oxidation
